The experiment has as its target human MER (528-end) (Homo sapiens (Human), UniProt Q12866). The experiment in a line: HTRF Kinase Activity Biochemical Assay (KinEASE-TK). To be noted: 10 uM ATP. The gist of the method:
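Activity read-out is the HTRF ratio (665 nm over 620 nm emission, ×10,000; excitation 340 nm) after 1 h detection with 0.375 nM Eu3+-cryptate anti-TK antibody plus 0.062 uM SA-XL665. Preceding kinase step: human MER (528-end), biotinylated TK substrate, 1 h, room temperature.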
Background: In TR-FRET formats the signal depends on donor and acceptor labels being close together.

Chain of human MER (528-end) (Q12866 528-999 limits assumed): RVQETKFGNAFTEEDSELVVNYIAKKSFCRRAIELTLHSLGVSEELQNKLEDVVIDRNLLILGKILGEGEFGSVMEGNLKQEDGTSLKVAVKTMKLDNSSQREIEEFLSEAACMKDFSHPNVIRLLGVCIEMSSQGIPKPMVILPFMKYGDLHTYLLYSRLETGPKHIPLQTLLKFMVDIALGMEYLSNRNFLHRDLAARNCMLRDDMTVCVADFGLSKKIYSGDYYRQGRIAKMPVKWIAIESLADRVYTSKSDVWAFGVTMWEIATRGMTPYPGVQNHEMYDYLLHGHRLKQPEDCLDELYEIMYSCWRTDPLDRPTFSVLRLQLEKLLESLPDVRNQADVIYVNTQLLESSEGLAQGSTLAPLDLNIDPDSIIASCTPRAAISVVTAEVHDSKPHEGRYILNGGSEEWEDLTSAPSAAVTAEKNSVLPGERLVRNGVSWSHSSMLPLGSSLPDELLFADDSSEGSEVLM

With `Cn1cc(-c2cnc(N)c(C(=O)N[C@@H]3CCN(C(=O)Oc4cccc(-c5ccc(CNCCCO)cc5)c4)C3)c2)cn1` [Example 328, 4′-(((3-hydroxypropyl)amino)methyl)-[1,1′-biphenyl]-3-yl (R)-3-(2-amino-5-(1-methyl-1H-pyrazol-4-yl)nicotinamido)pyrrolidine-1-carboxylate], the IC50 was in the range of 0.1 to 1 µM.

On to `Cn1cc(-c2cnc(N)c(C(=O)N[C@@H]3CCN(C(=O)Oc4cccc(-c5ccc(CN6CCC(C(=O)O)C6)cc5)c4)C3)c2)cn1` (stereo partly drawn) [Example 329, 1-((3′-(((R)-3-(2-amino-5-(1-methyl-1H-pyrazol-4-yl)nicotinamido)pyrrolidine-1-carbonyl)oxy)-[1,1′-biphenyl]-4-yl)methyl)pyrrolidine-3-carboxylic acid], for which the IC50 was more than 1 µM.

On to `Cn1cc(-c2cnc(N)c(C(=O)N[C@@H]3CCN(C(=O)Oc4cccc(-c5cccc(CN6CC[C@H](N)C6)c5)c4)C3)c2)cn1` [Example 337, 3′-(((S)-3-aminopyrrolidin-1-yl)methyl)-[1,1′-biphenyl]-3-yl (R)-3-(2-amino-5-(1-methyl-1H-pyrazol-4-yl)nicotinamido)pyrrolidine-1-carboxylate], for which the concentration for half-maximal inhibition (IC50) was more than 1 µM.

Compound `Cn1cc(-c2cnc(N)c(C(=O)N[C@@H]3CCN(C(=O)c4ccc(Br)cc4)C3)c2)cn1` [Example 342, (R)-2-amino-N-(1-(4-bromobenzoyl)pyrrolidin-3-yl)-5-(1-methyl-1H-pyrazol-4-yl)nicotinamide] yielded an IC50 of more than 1 µM.

`Cn1cc(-c2cnc(N)c(C(=O)N[C@@H]3CCN(C(=O)c4ccc(-c5ccccc5)cc4)C3)c2)cn1` [Example 343, (R)—N-(1-([1,1′-biphenyl]-4-carbonyl)pyrrolidin-3-yl)-2-amino-5-(1-methyl-1H-pyrazol-4-yl)nicotinamide] yielded an IC50 of 0.01 to 0.1 µM.

As for `Cn1cc(-c2cnc(N)c(C(=O)N[C@H]3CCN(C(=O)c4cccc(-c5ccccc5)c4)C3)c2)cn1` [Example 345, (S)—N-(1-([1,1′-biphenyl]-3-carbonyl)pyrrolidin-3-yl)-2-amino-5-(1-methyl-1H-pyrazol-4-yl)nicotinamide], the IC50 was more than 1 µM.

With `Cn1cc(-c2cnc(N)c(C(=O)N[C@@H]3CCN(C(=O)c4ccc(-c5ccccc5CO)cc4)C3)c2)cn1` [Example 349, (R)-2-amino-N-(1-(2′-(hydroxymethyl)-[1,1′-biphenyl]-4-carbonyl)pyrrolidin-3-yl)-5-(1-methyl-1H-pyrazol-4-yl)nicotinamide], the IC50 is 0.1 to 1 µM.

For `CC(C)c1ccccc1-c1ccc(C(=O)N2CC[C@@H](NC(=O)c3cc(-c4cnn(C)c4)cnc3N)C2)cc1` [Example 350, (R)-2-amino-N-(1-(2′-isopropyl-[1,1′-biphenyl]-4-carbonyl)pyrrolidin-3-yl)-5-(1-methyl-1H-pyrazol-4-yl)nicotinamide], the concentration for half-maximal inhibition (IC50) lay within 0.1 to 1 µM.

Consider `Cn1cc(-c2cnc(N)c(C(=O)N[C@@H]3CCN(C(=O)c4ccc(-c5ccccc5Oc5ccccc5)cc4)C3)c2)cn1` [Example 351, (R)-2-amino-5-(1-methyl-1H-pyrazol-4-yl)-N-(1-(2^1-phenoxy-[1,1′-biphenyl]-4-carbonyl)pyrrolidin-3-yl)nicotinamide], for which the half-inhibitory concentration (IC50) was more than 1 µM.

Take `Cn1cc(-c2cnc(N)c(C(=O)N[C@@H]3CCN(C(=O)c4ccc(-c5ccccc5-c5ccccc5)cc4)C3)c2)cn1` [Example 352, (R)—N-(1-([1,1′:2′,1″-terphenyl]-4-carbonyl)pyrrolidin-3-yl)-2-amino-5-(1-methyl-1H-pyrazol-4-yl)nicotinamide]: the IC50 was more than 1 µM.

Compound `CCc1ccccc1-c1ccc(C(=O)N2CC[C@@H](NC(=O)c3cc(-c4cnn(C)c4)cnc3N)C2)cc1` [Example 353, (R)-2-amino-N-(1-(2′-ethyl-[1,1′-biphenyl]-4-carbonyl)pyrrolidin-3-yl)-5-(1-methyl-1H-pyrazol-4-yl)nicotinamide] registered a 50% inhibitory concentration (IC50) of 0.1 to 1 µM.

What is called IC50 is the concentration that gives 50% inhibition. Lower therefore signals greater potency in that assay.

The values are drawn from patent publication US12378224B2 (Dong-A Socio Holdings Co., Ltd., priority 2016, dated 2025).
